# Measurements published in patent US3993650A, “Pyrrolo [3,4-d] pyrimidines” (Gruppo Lepetit S.p.A., priority 1975, dated 1976).
# Test system: carragenin induced edema
# Experiment: carragenin induced edema test in rats (antiinflammatory activity)
# Assay type: in vivo
# Conditions: per os; for decrease of the induced edema: 100 mg/kg; for decrease of the induced edema over the controls: dose levels ranging from about 20 to about 50 mg/kg
# Protocol: The compounds of the invention display excellent pharmacological properties; more particularly they are active essentially as antiinflammatories and as prostaglandin synthetase inhibitors. The antiinflammatory activity was investigated through the "carragenin induced edema" test in rats, which was performed following substantially the operative schema proposed by C.A. Winter et al. in Proc. Soc. Expl. Biol. Med., 111, 544, 1962.
# It must be noted that a percent decrease of the edema of 30 is absolutely significative from the pharmacological standpoint. Moreover when administered per os at 100 mg/kg the compounds of examples 3 and 7 caused a decrease of the induced edema of about 55%. These very favorable antiinflammatory properties are coupled with a low toxicity, being the LD50 of the compounds of the invention always higher than 500 mg/kg p.o. in mice. Toxicities were determined substantially according to the method described by Lichtfield and Wilcoxon in Journ. Pharm. Expt. Ther., 96, 99 1949.
Compound,decrease of the induced edema,decrease of the induced edema over the controls
"CCn1c(-c2ccccc2)c2c(C)nc(-c3ccccc3)c-2[nH]c1=O.Cl [Example 3, 3-Ethyl-5-methyl-4,7-diphenyl-1H-pyrrolo[3,4-d]pyrimidine-2(3H)-one hydrochloride]",about 55%,at least 30%
"CCn1c(-c2ccccc2)c2[nH]c(=O)nc(-c3ccccc3)c2c1C [Example 6, 6-Ethyl-5-methyl-4,7-diphenyl-6H-pyrrolo[3,4-d]pyrimidine-2(1H)-one]",,at least 30%
"CCn1c(C)c2c(-c3ccccc3)nc(=O)n(CC)c2c1-c1ccccc1 [Example 7, 1,6-Diethyl-5-methyl-4,7-diphenyl-6H-pyrrolo[3,4-d]pyrimidine-2(1H)-one]",about 55%,at least 30%
